# Test results taken from patent US20230141198A1, “PYRAZOL[…]” (THE KITASATO INSTITUTE, priority 2019, published 2023).
# pEC50: −log10 of the molar value.
# Tests used:
# [1] = target: T1, human opioid δ receptor (Homo sapiens, UniProt P41143); assay: Opioid receptor function test (agonist activity, Lance Ultra cAMP kit), δ receptor; assay type: cell-based; conditions: for Emax: maximum reaction relative to control drug SNC 80 taken as 100%
# T1 construct: host or cells: CHO cells
# Text: (§1) Opioid Receptor Function Test
# (§2) Functional activity of the compound provided by the present invention on μ, δ, and κ opioid receptors was examined.
# (§3) Method: Using a Lance Ultra cAMP kit (Perkin Elmer), the functional activity was examined by a predetermined method. In evaluation of agonist activity, CHO cells expressing each of human opioid receptors (δ, μ, and κ: accession numbers and catalog numbers are described below) were reacted with a test compound in an assay buffer (1× HBSS, […], pH 7.4, […] isobutylmethylxanthine (IBMX), 7.5% BSA) in the presence of 10 μM forskolin for 30 minutes. Subsequently, a cAMP detection reagent in the kit was added. One hour later, time-resolved fluorescence measurement was performed using an EnVision plate reader (Perkin Elmer). The test compound and each control drug (δ: SNC 80, μ: DAMGO, κ: U-69593) were evaluated in a concentration range of 10^−12 to 10^−5 M. A dose reaction curve of the test compound was determined from a fluorescence value at 665 nm, and an EC50 value and an Emax value were calculated. The Emax value was determined as a ratio of a maximum reaction of the test compound when a maximum reaction of each control drug was taken as 100%.
# [2] = target: T2, human opioid κ receptor (Homo sapiens, UniProt P41145); assay: Opioid receptor function test (agonist activity, Lance Ultra cAMP kit), κ receptor; assay type: cell-based; conditions: for Emax: maximum reaction relative to control drug U-69593 taken as 100%
# T2 construct: host or cells: CHO cells
# T2 sequence (P41145 whole entry): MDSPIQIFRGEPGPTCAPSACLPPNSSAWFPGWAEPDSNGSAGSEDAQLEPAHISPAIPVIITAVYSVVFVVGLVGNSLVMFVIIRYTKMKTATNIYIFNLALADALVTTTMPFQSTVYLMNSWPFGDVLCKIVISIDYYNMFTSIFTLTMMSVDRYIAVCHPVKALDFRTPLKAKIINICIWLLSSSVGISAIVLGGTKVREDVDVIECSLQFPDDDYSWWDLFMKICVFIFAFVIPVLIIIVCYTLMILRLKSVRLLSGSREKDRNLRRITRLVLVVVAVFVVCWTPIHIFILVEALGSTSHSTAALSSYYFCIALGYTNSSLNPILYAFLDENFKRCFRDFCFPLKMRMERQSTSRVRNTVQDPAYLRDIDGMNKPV
# Text: as §1, §2, §3
# T1 sequence (P41143 whole entry): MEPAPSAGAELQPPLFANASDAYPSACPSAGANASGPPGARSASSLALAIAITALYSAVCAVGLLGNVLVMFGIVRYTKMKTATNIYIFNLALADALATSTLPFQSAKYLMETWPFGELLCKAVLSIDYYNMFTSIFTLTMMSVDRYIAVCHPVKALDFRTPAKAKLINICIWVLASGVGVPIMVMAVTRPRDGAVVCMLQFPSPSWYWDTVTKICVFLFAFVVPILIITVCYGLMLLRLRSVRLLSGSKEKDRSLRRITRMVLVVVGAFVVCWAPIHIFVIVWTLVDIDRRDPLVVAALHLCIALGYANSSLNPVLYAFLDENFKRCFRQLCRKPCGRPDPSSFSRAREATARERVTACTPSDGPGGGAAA
SMILES,pEC50 [1],Emax [1] [%],pEC50 [2],Emax [2] [%]
"Cc1nn(C2CCC2)c2c1C[C@@]1(O)[C@H]3Cc4ccc(O)cc4[C@@]1(CCN3CC1CC1)C2 [Compound 84, (6R,6aS,11aR)-10-cyclobutyl-14-(cyclopropylmethyl)-8-methyl-5,6,10,11-tetrahydro-6,11a-(epiminoethano)naphtho[2,1-f]indazole-2,6a(7H)-diol]",9.47,95,–,–
"Cc1c2c(nn1CC1CCCCC1)C[C@]13CCN(CC4CC4)[C@H](Cc4ccc(O)cc41)[C@]3(O)C2 [Compound 42, (6R,6aS,11aR)-9-(cyclohexylmethyl)-14-(cyclopropylmethyl)-8-methyl-5,6,9,11-tetrahydro-6,11a-(epiminoethano)naphtho[2,1-f]indazole-2,6a(7H)-diol]",9.00,90,–,–
"Cc1c2c(nn1CC1CC1)C[C@]13CCN(CC4CC4)[C@H](Cc4ccc(O)cc41)[C@]3(O)C2 [Compound 46, (6R,6aS,11aR)-9,14-bis(cyclopropylmethyl)-8-methyl-5,6,9,11-tetrahydro-6,11a-(epiminoethano)naphtho[2,1-f]indazole-2,6a(7H)-diol]",9.77,105,–,–
"Cc1nn(CC2CC2)c2c1C[C@@]1(O)[C@H]3Cc4ccc(O)cc4[C@@]1(CCN3CC1CC1)C2 [Compound 45, (6R,6aS,11aR)-10,14-bis(cyclopropylmethyl)-8-methyl-5,6,10,11-tetrahydro-6,11a-(epiminoethano)naphtho[2,1-f]indazole-2,6a(7H)-diol]",9.12,72,–,–
"Cc1nn(-c2cccnc2)c2c1C[C@@]1(O)[C@H]3Cc4ccc(O)cc4[C@@]1(CCN3CC1CC1)C2 [Compound 49, (6R,6aS,11aR)-14-(cyclopropylmethyl)-8-methyl-10-(pyridin-3-yl)-5,6,10,11-tetrahydro-6,11a-(epiminoethano)naphtho[2,1-f]indazole-2,6a(7H)-diol]",9.30,73,–,–
"Cc1nn(-c2ccncc2)c2c1C[C@@]1(O)[C@H]3Cc4ccc(O)cc4[C@@]1(CCN3CC1CC1)C2 [Compound 28, (6R,6aS,11aR)-14-(cyclopropylmethyl)-8-methyl-10-(pyridin-4-yl)-5,6,10,11-tetrahydro-6,11a-(epiminoethano)naphtho[2,1-f]indazole-2,6a(7H)-diol]",9.48,101,7.24,15
"Cc1nn(C(=O)c2ccccc2)c2c1C[C@@]1(O)[C@H]3Cc4ccc(O)cc4[C@@]1(CCN3CC1CC1)C2 [Compound 36, ((6R,6aS,11aR)-14-(cyclopropylmethyl)-2,6a-dihydroxy-8-methyl-6,6a,7,11-tetrahydro-6,11a-(epiminoethano)naphtho[2,1-f]indazol-10(5H)-yl)(phenyl)methanone]",8.47,65,–,–
"Cc1nn(C2CCOCC2)c2c1C[C@@]1(O)[C@H]3Cc4ccc(O)cc4[C@@]1(CCN3CC1CC1)C2 [Compound 88, (6R,6aS,11aR)-14-(cyclopropylmethyl)-8-methyl-10-(tetrahydro-2H-pyran-4-yl)-5,6,10,11-tetrahydro-6,11a-(epiminoethano)naphtho[2,1-f]indazole-2,6a(7H)-diol]",10.07,113,–,–
"Cc1nn(-c2ccccc2)c2c1C[C@@]1(O)[C@H]3Cc4ccc(O)cc4[C@@]1(CCN3CC1CC1)C2 [Compound 21, (6R,6aS,11aR)-14-(cyclopropylmethyl) methyl-10-phenyl-5,6,10,11-tetrahydro-6,11a-(epiminoethano)naphtho[2,1-f]indazole-2,6a(7H)-diol]",9.12,81,–,–
"Cc1nn(-c2ccccn2)c2c1C[C@@]1(O)[C@H]3Cc4ccc(O)cc4[C@@]1(CCN3CC1CC1)C2 [Compound 27, (6R,6aS,11aR)-14-(cyclopropylmethyl)-8-methyl-10-(pyridin-2-yl)-5,6,10,11-tetrahydro-6,11a-(epiminoethano)naphtho[2,1-f]indazole-2,6a(7H)-diol]",9.08,51,–,–
"Cc1nn(-c2nccs2)c2c1C[C@@]1(O)[C@H]3Cc4ccc(O)cc4[C@@]1(CCN3CC1CC1)C2 [Compound 51, (6R,6aS,11aR)-14-(cyclopropylmethyl)-8-methyl-10-(thiazol-2-yl)-5,6,10,11-tetrahydro-6,11a-(epiminoethano)naphtho[2,1-f]indazole-2,6a(7H)-diol]",9.03,54,–,–
"Cc1c2c(nn1C1CCCCC1)C[C@]13CCN(CC4CC4)[C@H](Cc4ccc(O)cc41)[C@]3(O)C2 [Compound 33, (6R,6aS,11aR)-9-cyclohexyl-14-(cyclopropylmethyl)-8-methyl-5,6,9,11-tetrahydro-6,11a-(epiminoethano)naphtho[2,1-f]indazole-2,6a(7H)-diol]",9.85,108,7.36,13
"Cc1nn(C2CCCCC2)c2c1C[C@@]1(O)[C@H]3Cc4ccc(O)cc4[C@@]1(CCN3CC1CC1)C2 [Compound 32, (6R,6aS,11aR)-10-cyclohexyl-14-(cyclopropylmethyl)-8-methyl-5,6,10,11-tetrahydro-6,11a-(epiminoethano)naphtho[2,1-f]indazole-2,6a(7H)-diol]",10.05,111,–,–
"Cc1[nH]nc2c1C[C@@]1(O)[C@H]3Cc4ccc(O)cc4[C@@]1(CCN3CC1CC1)C2 [34, 35]",8.89,42,–,–
"Cc1nn(C2CCSCC2)c2c1C[C@@]1(O)[C@H]3Cc4ccc(O)cc4[C@@]1(CCN3CC1CC1)C2 [Compound 89, (6R,6aS,11aR)-14-(cyclopropylmethyl)-8-methyl-10-(tetrahydro-2H-thiopyran-4-yl)-5,6,10,11-tetrahydro-6,11a-(epiminoethano)naphtho[2,1-f]indazole-2,6a(7H)-diol]",10.16,112,–,–
"Cc1nn(C2CC2)c2c1C[C@@]1(O)[C@H]3Cc4ccc(O)cc4[C@@]1(CCN3CC1CC1)C2 [Compound 82, (6R,6aS,11aR)-10-cyclopropyl-14-(cyclopropylmethyl)-8-methyl-5,6,10,11-tetrahydro-6,11a-(epiminoethano)naphtho[2,1-f]indazole-2,6a(7H)-diol]",9.03,39,–,–
"O=c1c2c([nH]n1-c1ccccc1)C[C@]13CCN(CC4CC4)[C@H](Cc4ccc(O)cc41)[C@]3(O)C2 [Compound 68, (6R,6aS,11aR)-14-(cyclopropylmethyl)-2,6a-dihydroxy-9-phenyl-6,6a,7,9,10,11-hexahydro-6,11a-(epiminoethano)naphtho[2,1-f]indazol-8(5H)-one]",8.85,100,–,–
"Cc1c2c(nn1C1CCSCC1)C[C@]13CCN(CC4CC4)[C@H](Cc4ccc(O)cc41)[C@]3(O)C2 [Compound 90, (6R,6aS,11aR)-14-(cyclopropylmethyl)-8-methyl-9-(tetrahydro-2H-thiopyran-4-yl)-5,6,9,11-tetrahydro-6,11a-(epiminoethano)naphtho[2,1-f]indazole-2,6a(7H)-diol]",10.04,116,8.09,15
"Cc1nn(C2CCCC2)c2c1C[C@@]1(O)[C@H]3Cc4ccc(O)cc4[C@@]1(CCN3CC1CC1)C2 [Compound 86, (6R,6aS,11aR)-10-cyclopentyl-14-(cyclopropylmethyl)-8-methyl-5,6,10,11-tetrahydro-6,11a-(epiminoethano)naphtho[2,1-f]indazole-2,6a(7H)-diol]",9.92,101,–,–
